Measured values published in paper PMC4942819 (Scientific Reports, 2016).
In brackets after ≈: the same amount, converted by molar mass. Several values for one entry are separate records, joined by “and”; a condition that tells them apart may be missing. Identical values can stand only once. Like-named read-outs stand apart in the source and are kept apart here.

Columns and labels:
MDR-TB clinical isolates = assay: microbe, parasite or virus in culture; format: cell-based; conditions: Mycobacterium tuberculosis
XDR-TB clinical isolates = assay: microbe, parasite or virus in culture; format: cell-based, Mycobacterium tuberculosis; conditions: for MIC: Mycobacterium tuberculosis
M. tuberculosis H37Rv = assay: MABA checkerboard synergy assay; format: cell-based, Mycobacterium tuberculosis
[1] = system: M. tuberculosis Erdman in J774A.1 cells; assay: macrophage assay, intracellular activity; format: cell-based, Mycobacterium tuberculosis; conditions: for Log10 CFU, intracellular Mtb Erdman: J774A.1 macrophages, 0.02 μM (Fig. 2 legend: 0.02 μg/mL), 7 days; for Fold(log) reduction: decrease of log10 CFU between D7 and treatment group, J774A.1, 0.02 μM (Fig. 2 legend: 0.02 μg/mL)
Protocol: As described previously, J774A.1 cells were grown in 75-cm2 cell culture flasks in 10% FBS in Dulbecco’s modified Eagle’s medium (DMEM) until confluency. The cells were detached using a cell scraper, and then centrifuged at 200 g for 5 min at room temperature. The cells were incubated at 37 °C under 5% CO2 for 16 h after distributing into 24-well plates containing coverslips. M. tuberculosis Erdman (ATCC 35801) were diluted to a final concentration of 1 × 10^5 to 3 × 10^5 CFU/mL with DMEM after thawing and sonicating from frozen cultures. And 500 ul of the dilution was dispensed to each well of a new 24-well plate. Followed by, J774A.1 cells on coverslips were infected by incubation with M. tuberculosis Erdman at 37 °C for 2 h. Coverslips were then washed with HBSS and transferred to new 24-well plates. The Cultures were treated in triplicate with compounds at 0.02 μM containing DMEM and incubated at 37 °C under 5% CO2 for 16 h. At D 0 (for untreated controls) and after 7 days of incubation, macrophage cells were lysed by addition of 200 μL of 0.25% sodium dodecyl sulfate. The plates were incubated at 37 °C for 10 min, and 200 μL of DMEM was added. The lysate was sampled using a microtube and sonicated for 15 s. Then 1:1, 1:10, 1:100, and 1:1,000 dilutions were plated on 7H11 agar plates and CFU counts determined after 2 to 3 weeks of incubation at 37 °C.

M. tuberculosis Erdman = assay: in vivo acute M.tb Erdman infection mouse model; design: species or system Mycobacterium tuberculosis
[2] = system: Mycobacterium tuberculosis H37Rv; assay: microplate Alamar blue assay (MABA), MIC; format: cell-based; conditions: replicating H37Rv
[3] = system: Mycobacterium tuberculosis Erdman; assay: microplate Alamar blue assay (MABA), MIC; format: cell-based
Vero cells = assay: cytotoxicity, MTT assay; format: cell-based; conditions: Chlorocebus sabaeus
Protocol: (§1) The compounds were examined for toxicity (IC50) using MTT assay. Briefly, cells (3 ~ 5 × 10^3 cells/well) were seeded in a 96-well plate. After 24 h incubation, the cells were treated with various concentrations of drugs for 24, 48, 72 h, respectively. Columns one and two in the assay plates contained-media +0.1% DMSO for a negative control ,Then, 20 μl of a 5 mg/mL MTT solution was added to each well, and the plates were incubated for an additional 2~4 h at 37 °C. The medium was subsequently discarded, and DMSO 150 μL was added to dissolve the formazan. Oscillate 15 min, the OD 570 was measured using a Spectra MAX M5 microplate spectrophotometer (Molecular Devices, CA, USA), and the IC50 values were calculated.
(§2) Compound MIC was conducted by ShangHai Chempartner Co., Ltd (Shanghai, China) using the microplate Alamar Blue assay (MABA) against Mycobacterium tuberculosis H37Ra (ATCC 25177). Cytotoxicity of tested compounds was assessed on Vero cells.

Mycobacterium avium = assay: microdilution plate assay, MIC; format: cell-based
A549 cells = assay: cytotoxicity, MTT assay; format: cell-based; conditions: Homo sapiens
Protocol: as §1

J774A.1 cells = assay: cytotoxicity, MTT assay; format: cell-based; conditions: Mus musculus, J774.A1
Protocol: as §1

[4] = pharmacokinetic study in SD rats; format: in vivo; conditions: female, rat, 5 mg/kg
Protocol: All animal experiments have been approved by the Institutional Animal Care and Treatment Committee of Sichuan University in China and were carried out in accordance with the approved guidelines. SPF female SD rats weighing 180–220 g were used in the pharmacokinetic study. The rats were fasted overnight before dosing. Every treatment group contain 3 rats. Rats were dosed with SKLB-TB1001 or BTZ043 suspension at 5 mg/kg (i.v. and p.o.). Compounds were dissolved in 5% DMSO/10% Solutol HS15 in saline for intravenous injection and suspended in 0.5% CMC for oral administration. Blood was collected from the jugular vein of each animal at the following times after administration of drugs: 0.083, 0.25, 0.5, 1, 2, 4, 6, 8 and 24 h after a single i.v. dosing; and 0.25, 0.5, 1, 2, 4, 6, 8 and 24 h after a single oral dosing. All blood samples were centrifuged at 3000 r/min for 10 min to obtain serum which was then stored at −20 °C. 150 μL of the serum was added to 500 μL of acetonitrile and the mixture was centrifuged at 13000 r/min for 10 min to remove protein. The supernatant was dried and dissolve in 100 μL of acetonitrile, the solution was centrifuged at 13000 r/min for 10 min. The supernatant was moved to a sample bottle for HPLC analysis. Total area under the concentration time curve (AUC), the elimination half-time (t1/2), the peak concentration (Cmax) and the time to reach peak concentration (Tmax) of samples were determined directly from the experimental data using WinNonlin V6.2.1.

[5] = system: Mycobacterium tuberculosis H37Ra (ATCC 25177); assay: microplate Alamar Blue assay (MABA), MIC, H37Ra; format: cell-based
Protocol: as §2

aqueous solubility = format: physicochemical
Protocol: (§3) The In vitro ADME/T assays were conducted at WuXi AppTec Co. Ltd.(Shanghai). ClogP was calculated with ChemDraw Ultra 14.0. In the study of bi-directional permeability across MDR1-MDCKII cell monolayer, permeability was correlated with the apparent permeability coefficient Papp (cm/s), which was interpreted as follows: Low permeability( Papp ≤ 1.0×10^-6 cm/s), Moderate permeability(1.0×10^-6 < Papp < 5.5×10^-6 cm/s) or High permeability( Papp ≥ 5.5×10^-6 cm/s). ^aaqueous solubility at room temperature.

plasma protein binding = format: in vitro ADME; conditions: mouse
Protocol: as §3

[6] = system: MDR1-MDCKII cell monolayer; assay: bi-directional permeability across MDR1-MDCKII cell monolayer; format: in vitro ADME; conditions: dog, MDCK-MDR1
Protocol: as §3

CYP2C19 = CYP2C19 (Homo sapiens, UniProt P33261); assay: CYP inhibition; format: in vitro ADME; conditions: read-out: CYP inhibition IC50, CYP2C19
Protocol: as §3

CYP2C9 = CYP2C9 (Homo sapiens, UniProt P11712); assay: CYP inhibition; format: in vitro ADME; conditions: read-out: CYP inhibition IC50, CYP2C9
Protocol: as §3

CYP2D6 = CYP2D6 (Homo sapiens, UniProt P10635); assay: CYP inhibition; format: in vitro ADME; conditions: read-out: CYP inhibition IC50, CYP2D6
Protocol: as §3

CYP3A4 = CYP3A4 (Homo sapiens, UniProt P08684); assay: CYP inhibition; format: in vitro ADME; conditions: read-out: CYP inhibition IC50, CYP3A4
Protocol: as §3

[7] = system: Mycobacterium tuberculosis; design: method as in PMID 19299584; conditions: cited from earlier work
[8] = read-out: MIC, MDR-TB strain M3
[9] = read-out: MIC, MDR-TB strain M4
[10] = read-out: MIC, MDR-TB strain M8
[11] = read-out: MIC, MDR-TB strain M18
[12] = read-out: MIC, XDR-TB strain X15
[13] = read-out: MIC, XDR-TB strain X17
[14] = Vero, cytotoxicity, read-out: IC50 Vero
[15] = clinical isolate, Table 2 prints no unit, test range 0.0156 to 64 μg/mL

Sequence of CYP2D6 (P10635 whole entry): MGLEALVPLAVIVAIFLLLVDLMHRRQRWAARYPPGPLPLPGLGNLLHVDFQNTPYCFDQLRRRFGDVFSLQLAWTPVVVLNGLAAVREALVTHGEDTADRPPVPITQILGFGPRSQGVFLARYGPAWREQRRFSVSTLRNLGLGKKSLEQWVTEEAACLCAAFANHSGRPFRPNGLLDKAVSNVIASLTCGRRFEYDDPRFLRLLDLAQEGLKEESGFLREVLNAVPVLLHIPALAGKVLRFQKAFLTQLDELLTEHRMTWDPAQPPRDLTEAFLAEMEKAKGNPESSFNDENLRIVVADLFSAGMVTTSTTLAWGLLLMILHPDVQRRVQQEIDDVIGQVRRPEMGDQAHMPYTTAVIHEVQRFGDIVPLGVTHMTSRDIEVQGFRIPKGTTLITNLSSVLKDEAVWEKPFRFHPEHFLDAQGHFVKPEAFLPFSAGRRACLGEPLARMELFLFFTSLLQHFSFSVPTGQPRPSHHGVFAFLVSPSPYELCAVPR
Sequence of CYP2C9 (P11712 whole entry): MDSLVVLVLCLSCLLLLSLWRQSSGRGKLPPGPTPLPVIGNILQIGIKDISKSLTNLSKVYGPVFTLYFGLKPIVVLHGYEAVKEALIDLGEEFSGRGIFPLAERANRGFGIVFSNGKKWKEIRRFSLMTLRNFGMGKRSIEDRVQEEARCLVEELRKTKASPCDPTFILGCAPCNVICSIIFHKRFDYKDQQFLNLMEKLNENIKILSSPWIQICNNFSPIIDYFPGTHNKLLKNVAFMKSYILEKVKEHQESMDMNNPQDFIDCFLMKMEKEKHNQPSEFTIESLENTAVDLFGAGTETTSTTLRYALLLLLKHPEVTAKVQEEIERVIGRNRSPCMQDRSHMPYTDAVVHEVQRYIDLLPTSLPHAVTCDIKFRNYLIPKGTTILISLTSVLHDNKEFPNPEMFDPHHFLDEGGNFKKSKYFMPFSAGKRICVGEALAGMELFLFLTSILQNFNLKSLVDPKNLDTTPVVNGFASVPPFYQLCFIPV
Sequence of CYP3A4 (P08684 whole entry): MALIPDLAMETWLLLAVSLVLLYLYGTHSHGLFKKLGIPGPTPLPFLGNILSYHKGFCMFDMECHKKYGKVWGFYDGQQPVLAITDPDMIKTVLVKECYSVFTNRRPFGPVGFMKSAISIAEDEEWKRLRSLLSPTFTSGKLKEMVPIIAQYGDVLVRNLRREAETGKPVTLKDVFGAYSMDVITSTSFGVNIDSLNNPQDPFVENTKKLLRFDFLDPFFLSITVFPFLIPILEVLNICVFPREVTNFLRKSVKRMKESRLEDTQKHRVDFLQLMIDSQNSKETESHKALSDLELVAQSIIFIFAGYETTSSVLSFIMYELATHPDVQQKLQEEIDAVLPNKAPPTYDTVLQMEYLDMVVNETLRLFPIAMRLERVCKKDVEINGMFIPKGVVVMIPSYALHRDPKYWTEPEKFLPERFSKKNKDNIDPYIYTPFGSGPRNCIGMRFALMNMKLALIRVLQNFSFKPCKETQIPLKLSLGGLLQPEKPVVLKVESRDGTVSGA
Sequence of CYP2C19 (P33261 whole entry): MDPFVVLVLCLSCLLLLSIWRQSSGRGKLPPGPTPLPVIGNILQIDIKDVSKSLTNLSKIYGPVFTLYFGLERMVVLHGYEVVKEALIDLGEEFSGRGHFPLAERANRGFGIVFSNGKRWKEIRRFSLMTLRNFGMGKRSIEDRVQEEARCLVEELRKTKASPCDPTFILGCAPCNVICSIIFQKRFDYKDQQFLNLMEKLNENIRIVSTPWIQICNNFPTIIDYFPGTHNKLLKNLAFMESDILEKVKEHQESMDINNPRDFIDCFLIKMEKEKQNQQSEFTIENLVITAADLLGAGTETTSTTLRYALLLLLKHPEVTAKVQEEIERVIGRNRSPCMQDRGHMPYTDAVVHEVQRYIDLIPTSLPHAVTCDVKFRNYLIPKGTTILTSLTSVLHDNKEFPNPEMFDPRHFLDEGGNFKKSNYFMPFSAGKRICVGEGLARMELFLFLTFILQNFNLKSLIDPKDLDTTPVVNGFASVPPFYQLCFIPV

CO[C@H]1/C=C/O[C@@]2(C)Oc3c(C)c(O)c4c(O)c(c(/C=N/N5CCN(C)CC5)c(O)c4c3C2=O)NC(=O)/C(C)=C\C=C\[C@H](C)[C@H](O)[C@@H](C)[C@@H](O)[C@@H](C)[C@H](OC(C)=O)[C@@H]1C [RMP, rifampicin]
MIC (MDR-TB clinical isolates; [8]): 64 µg/mL (≈ 77.8 µM) | MIC (MDR-TB clinical isolates; [9]): 64 µg/mL (≈ 77.8 µM) | MIC (MDR-TB clinical isolates; [10]): 64 µg/mL (≈ 77.8 µM) | MIC (MDR-TB clinical isolates; [11]): 64 µg/mL (≈ 77.8 µM) | MIC (XDR-TB clinical isolates; [12]): 64 µg/mL (≈ 77.8 µM) | MIC (XDR-TB clinical isolates; [13]): 64 µg/mL (≈ 77.8 µM) | MIC against H37Rv, MIC in combo. (M. tuberculosis H37Rv; in combination with BTZ043): 0.007 µg/mL | MIC against H37Rv, MIC in combo. (M. tuberculosis H37Rv; in combination with TB1001): 0.001 µg/mL | decrease of MIC (M. tuberculosis H37Rv; in the presence of SKLB-TB1001): 6 fold | Log10 CFU, intracellular Mtb Erdman [1]: 6.44 | Fold(log) reduction [1]: 0.41 log | reduction of bacterial concentration in lungs compared to vehicle control group (M. tuberculosis Erdman; BALB/c mice, 15 mg/kg oral): 2.5 logs | Log10 CFU (SD), bacterial burden in mouse lungs (M. tuberculosis Erdman; BALB/c mice, Day-36, 15 mg/kg oral daily from day 10): 3.73 (3.19)

O=c1nc(N2CCN(CC3CCCCC3)CC2)sc2c([N+](=O)[O-])cc(C(F)(F)F)cc12 [PBTZ169]
MIC [2]: 0.02 µg/mL (≈ 0.0438 µM) | MIC [3]: ≤ 0.05 µg/mL | IC50 (Vero cells; [14]): > 100 µg/mL

NC[C@H]1O[C@H](O[C@H]2[C@H](O)[C@@H](O[C@H]3O[C@H](CO)[C@@H](O)[C@H](N)[C@H]3O)[C@H](N)C[C@@H]2N)[C@H](O)[C@@H](O)[C@@H]1O [KM, kanamycin]
MIC, XDR-TB strain X15 (XDR-TB clinical isolates; [15]): 64 µg/mL (≈ 132 µM) | MIC, XDR-TB strain X17 (XDR-TB clinical isolates; [15]): 64 µg/mL (≈ 132 µM)

CC1COc2c(N3CCN(C)CC3)c(F)cc3c(=O)c(C(=O)O)cn1c23 (stereo not shown) [OFLX, ofloxacin]
MIC (XDR-TB clinical isolates; [12]): 8 µg/mL (≈ 22.1 µM) | MIC (XDR-TB clinical isolates; [13]): 32 µg/mL (≈ 88.6 µM)

[H]/N=C(/N)N[C@H]1[C@H](O)[C@@H](O)[C@H](O[C@@H]2O[C@@H](C)[C@](O)(C=O)[C@H]2O[C@@H]2O[C@@H](CO)[C@H](O)[C@@H](O)[C@@H]2NC)[C@@H](N/C(N)=N\[H])[C@@H]1O [SM, streptomycin]
MIC (MDR-TB clinical isolates; [8]): 64 µg/mL (≈ 110 µM) | MIC (MDR-TB clinical isolates; [9]): 8 µg/mL (≈ 13.8 µM) | MIC (MDR-TB clinical isolates; [10]): 64 µg/mL (≈ 110 µM) | MIC (MDR-TB clinical isolates; [11]): 64 µg/mL (≈ 110 µM) | MIC (XDR-TB clinical isolates; [12]): 8 µg/mL (≈ 13.8 µM) | MIC (XDR-TB clinical isolates; [13]): 64 µg/mL (≈ 110 µM)

C[C@H]1COC2(CCN(c3nc(=O)c4cc(C(F)(F)F)cc([N+](=O)[O-])c4s3)CC2)O1 [BTZ043]
MIC [2]: 0.02 µg/mL (≈ 0.0464 µM) | MIC (Mycobacterium avium): 32 µg/mL (≈ 74.2 µM) | MIC [3]: < 0.05 µg/mL | IC50 (Vero cells; [14]): > 100 µg/mL | IC50 (Vero cells; cytotoxicity on Vero cells, read-out: IC50): > 20 µM | IC50 (A549 cells): 25 µg/mL (≈ 58 µM) | IC50 (J774A.1 cells): 32 µg/mL (≈ 74.2 µM) | MIC (M. tuberculosis H37Rv; Mycobacterium tuberculosis, H37RV, 336 h, checkerboard, drug alone, read-out: MIC against H37Rv, MIC alone): 0.011 µg/mL | MIC against H37Rv, MIC in combo. (M. tuberculosis H37Rv; in combination with RMP): 0.008 µg/mL | Log10 CFU, intracellular Mtb Erdman [1]: 4.70 | Fold(log) reduction [1]: 2.2 log and 2.15 log | bioavailability ([4]; SD, in vivo): 29.5% | AUC ([4]; SD, in vivo, po): 899 ng·h/mL | Cmax ([4]; SD, in vivo, po): 543 ng/mL | Tmax ([4]; SD, in vivo, po): 15 min | half-life ([4]; plasma, po, SD rats, terminal half-life for elimination): 73.2 min | activity in the acute Mtb Erdman infection mouse model (M. tuberculosis Erdman; 150 mg/kg): not significantly active | Log10 CFU (SD), bacterial burden in mouse lungs (M. tuberculosis Erdman; BALB/c mice, Day-36, 150 mg/kg oral daily from day 10): 6.31 (5.85) | MIC [5]: < 0.1 µM | Solubility (aqueous solubility): <1 | fraction unbound (plasma protein binding): < 0.01 | Permeability (Mean Papp, MDR1) A to B [6]: 9.02 10^-6 cm/s | Permeability (Mean Papp, MDR1) B to A [6]: 7.17 10^-6 cm/s | efflux ratio [6]: 0.79 | IC50 (CYP2C19): > 10 µM | IC50 (CYP2C9): > 10 µM | IC50 (CYP2D6): > 10 µM | IC50 (CYP3A4): > 10 µM | MIC [7]: 0.001 µg/mL (≈ 0.00232 µM)
